# Active and inactive are the calls of the source. The rule behind the calls is not given here.
# Key:
# BMDM [1] = assay: Inhibition of RANKL-induced osteoclast differentiation in ICR mouse bone marrow macrophage assessed as reduction in multinucleated TRAP+ cells at 10 uM preincubated for 3 days for RANKL stimulation followed by compound addition and measured after 1 day by TRAP staining based microscopy; format: functional, cell-based
# BMDM [2] = assay: Cytotoxicity against ICR mouse bone marrow macrophage assessed as reduction in cell viability at 1 to 10 uM incubated for 3 days by WST-8 assay; format: cell-based; conditions: 72 h
# [3] = Inhibition of RANKL-induced osteoclast differentiation in ICR mouse bone marrow macrophage assessed as reduction in multinucleated TRAP+ cells preincubated for 3 days for RANKL stimulation followed by compound addition and measured after 1 day by TRAP staining based microscopy; format: functional; conditions: BMDM, read-out: ED50 (the source's name)
# BMDM [4] = assay: Cytotoxicity against ICR mouse bone marrow macrophage assessed as reduction in cell viability at 10 uM incubated for 3 days by WST-8 assay; format: cell-based; conditions: 72 h
EC50 [3],Compound,inhibition (BMDM [1]),Activity (BMDM [2]),Activity (BMDM [4])
1.9 to 2.8 µM,COc1c2c(c(C)c3c1C(=O)OC3)O[C@@]1(C)CC[C@@]3(O)C(C)(C)C(=O)CC[C@]3(C)[C@H]1C2,,Non-Toxic,
1.9 to 2.8 µM,COc1c2c(c(C)c3c1C(=O)OC3)O[C@@]1(C)C[C@@H](O)[C@H]3C(C)(C)C(=O)CC[C@]3(C)[C@H]1C2,,Non-Toxic,
1.9 to 2.8 µM,Cc1c2c(c(O)c3c1O[C@@]1(C)CC[C@H]4C(C)(C)C(=O)CC[C@]4(C)[C@H]1C3)C(=O)OC2,,,Toxic
1.9 to 2.8 µM,COc1c2c(c(C)c3c1C(=O)OC3)O[C@@]1(C)CC[C@H]3C(C)(C)OC(=O)CC[C@]3(C)[C@H]1C2,,Non-Toxic,
1.9 to 2.8 µM,COc1c2c(c(C)c3c1C(=O)OC3)O[C@@]1(C)CC[C@H]3C(C)(C)[C@@H](O)CC[C@]3(C)[C@H]1C2,,Non-Toxic,

# More lines, now with the values behind:
Compound,EC50 [3],inhibition (BMDM [1]),Activity (BMDM [2]),Activity (BMDM [4])
CC(C)=CCC/C(C)=C/CC/C(C)=C/Cc1c(O)c(C)c2c(c1O)C(=O)OC2,,inactive,,
COC(=O)CC[C@]1(C)[C@H]2Cc3c(c(C)c4c(c3OC)C(=O)OC4)O[C@@]2(C)CC[C@H]1C(C)(C)O,1.9 to 2.8 µM,,Non-Toxic,
C=C(C)[C@@H]1[C@H](O)C[C@]2(C)Oc3c(C)c4c(c(OC)c3C[C@@H]2[C@@]1(C)CCC(=O)OC)C(=O)OC4,,inactive,,
COc1c2c(c(C)c3c1C(=O)OC3)O[C@@]1(C)CC[C@@H](C(C)(C)O)[C@](C)(CCC(=O)O)[C@H]1C2,,inactive,,
C=C(C)[C@@H]1CC[C@]2(C)Oc3c(C)c4c(c(OC)c3C[C@@H]2[C@@]1(C)CCC(=O)OC)C(=O)OC4,,inactive,,
COC(=O)CC[C@]1(C)[C@H]2Cc3c(c(C)c4c(c3OC)C(=O)OC4)O[C@@]2(C)C[C@@H](O)[C@H]1C(C)(C)O,,inactive,,
C/C(=C\Cc1c(O)c(C)c2c(c1O)C(=O)OC2)CC/C=C(\C)CCCC(C)(C)O,,inactive,,
